Experimental data reported in patent US10597388B2, “Pyridazinone herbicides” (FMC CORPORATION, priority 2014, dated 2020).

Columns and labels:
Assay type in all cases: in vivo
[1] = system: buckwheat, wild (wild buckwheat, Polygonum convolvulus); assay: Test D controlled growth environment herbicide test, pre- and postemergence
Method in brief: (§1)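 Species sown in silt loam and sprayed preemergence, or grown in peat-based medium to 2–18 cm (1- to 4-leaf stage) and sprayed postemergence, with compounds in non-phytotoxic solvent plus surfactant. Visual injury scored versus controls after 14–21 d in a controlled environment, 0 (no effect) to 100 (complete control).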

[2] = system: mustard, wild (wild mustard, Sinapis arvensis); assay: as above
Method in brief: as §1

[3] = system: ryegrass, Italian (Italian ryegrass, Lolium multiflorum); assay: as above
Method in brief: as §1

[4] = system: Italian ryegrass (Lolium multiflorum); assay: Test E greenhouse herbicide test, pre- and postemergence
Description: (§2) Seeds of plant species selected from corn (Zea mays), soybean (Glycine max), velvetleaf (Abutilon theophrasti), lambsquarters (Chenopodium album), wild poinsettia (Euphorbia heterophylla), pigweed, palmer (palmer pigweed, Amaranthus palmeri), waterhemp (common waterhemp, Amaranthus rudis), surinam grass (Brachiaria decumbens), crabgrass, large (large crabgrass, Digitaria sanguinalis), crabgrass, Brazilian (Brazilian crabgrass, Digitaria horizontalis), panicum, fall (fall panicum, Panicum dichotomiflorum), foxtail, giant (giant foxtail, Setaria faberii), foxtail, green (green foxtail, Setaria viridis), goosegrass (Eleusine indica), johnsongrass (Sorghum halepense), ragweed (common ragweed, Ambrosia elatior), barnyardgrass (Echinochloa crus-galli), sandbur (southem sandbur, Cenchrus echinatus), arrowleaf sida (Sida rhombifolia), Italian ryegrass (Lolium multiflorum), dayflower (Virginia (VA) dayflower, Commelina virginica), field bindweed (Convolvulus arvensis), momingglory (Ipomoea coccinea), nightshade (eastern black nightshade, Solanum ptycanthum), kochia (Kochia scoparia), nutsedge, yellow (yellow nutsedge, Cyperus esculentus), horseweed (Conyza canadensis), and beggarticks (hairy beggarticks, Bidens pilosa), were planted into a silt loam soil and treated preemergence with test chemicals formulated in a non-phytotoxic solvent mixture which included a surfactant.
(§3) At the same time, plants from these crop and weed species and also waterhemp_RES1, (ALS & Triazine resistant common waterhemp, Amaranthus rudis), and waterhemp_RES2, (ALS & HPPD resistant common waterhemp, Amaranthus rudis) were planted in pots containing Redi-Earth® planting medium (Scotts Company, 14111 Scottslawn Road, Marysville, Ohio 43041) comprising spaghnum peat moss, vermiculite, wetting agent and starter nutrients were treated with postemergence applications of test chemicals formulated in the same manner. Plants ranged in height from 2 to 18 cm for postemergence treatments (1- to 4-leaf stage). Treated plants and controls were maintained in a greenhouse for 14 to 21 d, after which time all species were compared to controls and visually evaluated. Plant response ratings, summarized in Table E, are based on a scale of 0 to 100 where 0 is no effect and 100 is complete control. A dash (-) response means no test result.

[5] = system: crabgrass, Brazilian (Brazilian crabgrass, Digitaria horizontalis); assay: as above
Description: as §2, §3

[6] = system: crabgrass, large (large crabgrass, Digitaria sanguinalis); assay: as above; conditions: Preemergence
Description: as §2, §3

[7] = system: kochia (Kochia scoparia); assay: as above
Description: as §2, §3

[8] = system: momingglory (Ipomoea coccinea); assay: as above; conditions: Preemergence
Description: as §2, §3

[9] = system: surinam grass (Brachiaria decumbens); assay: as above; conditions: Preemergence
Description: as §2, §3

[10] = system: nightshade (eastern black nightshade, Solanum ptycanthum); assay: as above; conditions: Preemergence
Description: as §2, §3

[11] = Postemergence, 31 g ai/ha, scale 0 to 100 (0 no effect, 100 complete control)
[12] = Postemergence, 125 g ai/ha, visual rating on scale 0 (no effect) to 100 (complete control), 14 to 21 d
[13] = Postemergence, 250 g ai/ha, scale 0 to 100 (0 no effect, 100 complete control)
[14] = postemergence, 62 g ai/ha, scale 0 to 100, 0 no effect, 100 complete control
[15] = 62 g ai/ha, Preemergence, scale 0 to 100 (0 no effect, 100 complete control)
[16] = 125 g ai/ha, Preemergence, scale 0 to 100 (0 no effect, 100 complete control)
[17] = Preemergence, 31 g ai/ha, scale 0 to 100, 0 no effect, 100 complete control
[18] = Preemergence, 125 g ai/ha, visual, scale 0 no effect to 100 complete control
[19] = 62 g ai/ha, scale 0 to 100 (0 no effect, 100 complete control)
[20] = 31 g ai/ha, scale 0 to 100, 0 no effect, 100 complete control
[21] = 125 g ai/ha, visual, scale 0 no effect to 100 complete control
[22] = 125 g ai/ha, scale 0 to 100 (0 no effect, 100 complete control)
[23] = Preemergence, 250 g ai/ha, visual, scale 0 no effect to 100 complete control
[24] = 250 g ai/ha, visual, scale 0 no effect to 100 complete control
[25] = Preemergence, 62 g ai/ha, scale 0 to 100 (0 no effect, 100 complete control)
[26] = Preemergence, 125 g ai/ha, scale 0 to 100 (0 no effect, 100 complete control)
[27] = Preemergence, 250 g ai/ha, scale 0 to 100, 0 no effect, 100 complete control
[28] = 62 g ai/ha, Postemergence, scale 0 to 100 (0 no effect, 100 complete control)
[29] = 125 g ai/ha, Postemergence, scale 0 to 100 (0 no effect, 100 complete control)
[30] = 250 g ai/ha, Postemergence, scale 0 to 100 (0 no effect, 100 complete control)
[31] = Postemergence, 31 g ai/ha, visual, scale 0 no effect to 100 complete control

## Cc1cc(C)c2ccccc2c1-c1c(O)c(C)nn(C)c1=O [Compound 21]
[1]; [11]
  Buckwheat, Wild plant response rating: 100
[1]; [12]
  Plant response rating, Buckwheat, Wild: 100
[1]; [13]
  Plant response rating, Buckwheat, Wild: 100
[1]; [14]
  Plant response rating, Buckwheat, Wild: 100
[2]; [11]
  Mustard, Wild plant response rating: 100
[2]; [12]
  Plant response rating, Mustard, Wild: 100
[2]; [13]
  Plant response rating, Mustard, Wild: 100
[2]; [14]
  Plant response rating, Mustard, Wild: 100
[3]; [11]
  Ryegrass, Italian plant response rating: 80
[3]; [12]
  Plant response rating, Ryegrass, Italian: 85
[3]; [13]
  Plant response rating, Ryegrass, Italian: 80
[3]; [14]
  Plant response rating, Ryegrass, Italian: 80
[4]; [15]
  Plant response rating, Ryegrass, Italian: 100
[4]; [16]
  Plant response rating, Ryegrass, Italian: 100
[4]; [17]
  Plant response rating, Ryegrass, Italian: 100
[5]; [15]
  Plant response rating, Crabgrass, Brazil: 98
[5]; [17]
  Plant response rating, Crabgrass, Brazil: 90
[5]; [18]
  Plant response rating, Crabgrass, Brazil: 100
[6]; [19]
  Plant response rating, Crabgrass, Large: 85
[6]; [20]
  Plant response rating, Crabgrass, Large: 65
[6]; [21]
  Plant response rating, Crabgrass, Large: 100
[7]; [15]
  Plant response rating, Kochia: 0
[7]; [17]
  Plant response rating, Kochia: 0
[7]; [18]
  Plant response rating, Kochia: 65
[8]; [19]
  Plant response rating, Morningglory: 98
[8]; [22]
  Plant response rating, Morningglory: 100
[8]; [20]
  Plant response rating, Morningglory: 90
[9]; [19]
  Plant response rating, Surinam Grass: 100
[9]; [22]
  Plant response rating, Surinam Grass: 100
[9]; [20]
  Plant response rating, Surinam Grass: 95

## Cc1ccc2ccccc2c1-c1c(O)c(I)nn(C)c1=O [Compound 29]
[4]; [15]
  Plant response rating, Ryegrass, Italian: 75
[4]; [16]
  Plant response rating, Ryegrass, Italian: 95
[4]; [17]
  Plant response rating, Ryegrass, Italian: 65
[4]; [23]
  Plant response rating, Ryegrass, Italian: 100
[5]; [15]
  Plant response rating, Crabgrass, Brazil: 75
[5]; [17]
  Plant response rating, Crabgrass, Brazil: 30
[5]; [18]
  Plant response rating, Crabgrass, Brazil: 70
[5]; [23]
  Plant response rating, Crabgrass, Brazil: 90
[6]; [19]
  Plant response rating, Crabgrass, Large: 25
[6]; [20]
  Plant response rating, Crabgrass, Large: 0
[6]; [21]
  Plant response rating, Crabgrass, Large: 40
[6]; [24]
  Plant response rating, Crabgrass, Large: 65
[7]; [15]
  Plant response rating, Kochia: 0
[7]; [17]
  Plant response rating, Kochia: 0
[7]; [18]
  Plant response rating, Kochia: 25
[7]; [23]
  Plant response rating, Kochia: 70
[8]; [19]
  Plant response rating, Morningglory: 65
[8]; [22]
  Plant response rating, Morningglory: 80
[8]; [20]
  Plant response rating, Morningglory: 35
[8]; [24]
  Plant response rating, Morningglory: 95
[10]; [19]
  Plant response rating, Nightshade: 70
[10]; [22]
  Plant response rating, Nightshade: 85
[10]; [20]
  Plant response rating, Nightshade: 5
[10]; [24]
  Plant response rating, Nightshade: 90
[9]; [19]
  Plant response rating, Surinam Grass: 95
[9]; [22]
  Plant response rating, Surinam Grass: 95
[9]; [20]
  Plant response rating, Surinam Grass: 75
[9]; [24]
  Plant response rating, Surinam Grass: 100

## Cn1nc(Br)c(O)c(-c2cccc3ccccc23)c1=O [Compound 20]
[1]; [11]
  Buckwheat, Wild plant response rating: 80
[1]; [12]
  Plant response rating, Buckwheat, Wild: 100
[1]; [13]
  Plant response rating, Buckwheat, Wild: 100
[1]; Preemergence, 31 g ai/ha
  Plant response rating (scale of 0 to 100), Buckwheat, Wild: 15
[1]; [25]
  Plant response rating, Buckwheat, Wild: 20
[1]; [26]
  Plant response rating, Buckwheat, Wild: 100
[1]; [27]
  Plant response rating, Buckwheat, Wild: 100
[1]; [14]
  Plant response rating, Buckwheat, Wild: 100
[2]; [11]
  Mustard, Wild plant response rating: 75
[2]; [12]
  Plant response rating, Mustard, Wild: 100
[2]; [13]
  Plant response rating, Mustard, Wild: 100
[2]; Preemergence, 31 g ai/ha
  Plant response rating (scale of 0 to 100), Mustard, Wild: 25
[2]; [25]
  Plant response rating, Mustard, Wild: 35
[2]; [26]
  Plant response rating, Mustard, Wild: 100
[2]; [27]
  Plant response rating, Mustard, Wild: 100
[2]; [14]
  Plant response rating, Mustard, Wild: 100
[3]; [11]
  Ryegrass, Italian plant response rating: 55
[3]; [12]
  Plant response rating, Ryegrass, Italian: 80
[3]; [13]
  Plant response rating, Ryegrass, Italian: 90
[3]; Preemergence, 31 g ai/ha
  Plant response rating (scale of 0 to 100), Ryegrass, Italian: 90
[3]; [25]
  Plant response rating, Ryegrass, Italian: 100
[3]; [26]
  Plant response rating, Ryegrass, Italian: 100
[3]; [27]
  Plant response rating, Ryegrass, Italian: 100
[3]; [14]
  Plant response rating, Ryegrass, Italian: 70
[4]; [28]
  Plant response rating, Ryegrass, Italian: 50
[4]; [15]
  Plant response rating, Ryegrass, Italian: 95
[4]; [29]
  Plant response rating, Ryegrass, Italian: 70
[4]; [16]
  Plant response rating, Ryegrass, Italian: 98
[4]; [30]
  Plant response rating, Ryegrass, Italian: 80
[4]; [31]
  Plant response rating, Ryegrass, Italian: 40
[4]; [17]
  Plant response rating, Ryegrass, Italian: 90
[4]; [23]
  Plant response rating, Ryegrass, Italian: 100
[5]; [28]
  Plant response rating, Crabgrass, Brazil: 20
[5]; [15]
  Plant response rating, Crabgrass, Brazil: 60
[5]; [29]
  Plant response rating, Crabgrass, Brazil: 20
[5]; [30]
  Plant response rating, Crabgrass, Brazil: 50
[5]; [31]
  Plant response rating, Crabgrass, Brazil: 10
[5]; [17]
  Plant response rating, Crabgrass, Brazil: 40
[5]; [18]
  Plant response rating, Crabgrass, Brazil: 70
[5]; [23]
  Plant response rating, Crabgrass, Brazil: 90
[6]; [19]
  Plant response rating, Crabgrass, Large: 35
[6]; [20]
  Plant response rating, Crabgrass, Large: 30
[6]; [21]
  Plant response rating, Crabgrass, Large: 35
[6]; [24]
  Plant response rating, Crabgrass, Large: 30
[7]; [28]
  Plant response rating, Kochia: 65
[7]; [15]
  Plant response rating, Kochia: 90
[7]; [29]
  Plant response rating, Kochia: 75
[7]; [30]
  Plant response rating, Kochia: 90
[7]; [31]
  Plant response rating, Kochia: 60
[7]; [17]
  Plant response rating, Kochia: 0
[7]; [18]
  Plant response rating, Kochia: 98
[7]; [23]
  Plant response rating, Kochia: 100
[8]; [19]
  Plant response rating, Morningglory: 75
[8]; [22]
  Plant response rating, Morningglory: 90
[8]; [20]
  Plant response rating, Morningglory: 20
[8]; [24]
  Plant response rating, Morningglory: 95
[9]; [19]
  Plant response rating, Surinam Grass: 65
[9]; [22]
  Plant response rating, Surinam Grass: 85
[9]; [20]
  Plant response rating, Surinam Grass: 10
[9]; [24]
  Plant response rating, Surinam Grass: 90
